Series [1] can be described thus: Single-dose pharmacokinetics of oral 25-hydroxyvitamin D3 formulations and IV injection in miniature swine (Example 1). Type of series: in vivo, Yucatan miniature swine. How it is done: Nine oral vitamin D formulations were prepared according to Table 2 below by homogeneously mixing the identified components in the amounts shown and filling the mixtures into hard gelatin capsules. Formulation 9 is an immediate-release formulation according to the prior art, wherein MIGLYOL 812N is the trade name for caprylic/capric triglycerides, available from CONDEA Chemie GmbH of Cranford, New Jersey, USA. […] Each group included five animals.
Blood was collected pre-dose, and at 0.5, 1, 2, 4, 6, 8, 12, 24, 48, 96, 168, 240, 336, 432, 504, 576, and 672 hours post dosing. Serum 25-hydroxyvitamin D3 levels were assayed by Liquid Chromatography/Mass Spectrometry/Mass Spectrometry (LC MS/MS).

Series [2] relates to iPTH. As to the kind of experiment: Example 8: iPTH in Stage 3 or 4 CKD subjects. The format is in vivo, human. Conditions: single dose: IV 448 μg or 450 μg MR. An excerpt: (§1) The modified release dosage formulation was the same as formulation 7 in Table 2 herein, with the following exceptions: (1) a vegetable-based capsule was used in place of a gelatin capsule; (2) hard paraffin content was reduced to 20%; and (3) liquid paraffin (light mineral oil) content was increased to 30%.
(§2) The bioavailability of the modified release dosage form was about 10% measured over the duration of the study (42 days).

Series [3] can be described thus: clinical. Conditions: human, in vivo, 450 ug.
Source text: as §1, §2

Series [4] in a line: Expected rise of serum 25-hydroxyvitamin D3 in a human, stated after the mini-pig result. The format is in vivo. Conditions: single dose of 50 μg to a human (about 60 kg).
The mark [5] stands for this setting: Yucatan, minipig, serum, iv, 250 ug.

Structures are written as SMILES.

As for `C=C1CC[C@H](O)C/C1=C/C=C1\CCC[C@]2(C)[C@@H]([C@H](C)CCCC(C)(C)O)CC[C@@H]12` [25-hydroxyvitamin D3], the AUC(0-inf) in series [1] (setting [5]) worked out at 16600 ng·h/mL. The Cmax in series [1] (setting [5]) was found to be 155 ng/mL; in series [3], 134 ± 19 ng/mL. The Tmax was 1.5 h in series [1] (setting [5]), 0.5 ± 0.6 h in series [3] (AVG) and 0.25 h in series [3] (Median). Besides, the AUC(0-t) in series [1] (Yucatan, minipig, serum, iv, 250 ug, read-out: AUC (0-672 hr)) worked out at 15000 ng·h/mL. Moreover, the half-life in series [1] (Yucatan, minipig, serum, iv, 250 ug, read-out: T½ (converted)) is 132 h; in series [3] it was 1780 h. The compound further gave a BA in series [1] (single 250 μg dose, Group 10 IV injection = 100.0) of 100.0%. Moreover, the “effect on mean iPTH” value in series [2] is “minimal to no effect”; in series [2] (listed as IV calcifediol) it was “no clinically meaningful effect”. In addition, in series [3], the “tmax, AVG” value was determined as 0.49 h. Also, the “expected increase of serum 25-hydroxyvitamin D3” value in series [4] was “about 1.4 ng/ml”.

The values above are taken from patent US12708629B2, “Methods and compositions for reducing parathyroid levels” (EIRGEN PHARMA LTD., priority 2010, dated 2026).
